Results as given in the NIST ThermoML archive (doi:10.1021/acs.jced.5b00369).

Test: relative permittivity at zero frequency (dimensionless); xn = mol fraction of the nth substance listed
Settings: 101 kPa, Liquid

CC(C)[N+](=O)[O-] [2-nitropropane] + C1CCCCC1
298.15 K, two-terminal dielectric cell
Settings	relative permittivity at zero frequency
x1 = 0.001188	2.0322
x1 = 0.003139	2.0568
x1 = 0.006442	2.09876
x1 = 0.009592	2.13855
x1 = 0.01286	2.18001
x1 = 0.01918	2.26067
x1 = 0.02225	2.29974
x1 = 0.0266	2.35434
x1 = 0.031	2.41041
x1 = 0.03475	2.45922
x1 = 0.04093	2.54037
x1 = 0.04703	2.62139
x1 = 0.05035	2.66577
x1 = 0.05259	2.69578
x1 = 0.05527	2.7322
x1 = 0.05838	2.77444
x1 = 0.06441	2.857
x1 = 0.07038	2.93937

CCC[N+](=O)[O-] [1-nitropropane] + Cc1ccc(C)cc1
298.15 K, two-cell dielectric cell
Settings	relative permittivity at zero frequency
x1 = 0.005128	2.31627
x1 = 0.007441	2.34224
x1 = 0.01482	2.4248
x1 = 0.0221	2.50652
x1 = 0.02927	2.58754
x1 = 0.03246	2.62349
x1 = 0.03388	2.63942
x1 = 0.03604	2.66416
x1 = 0.03819	2.68861
x1 = 0.04527	2.77022
x1 = 0.05226	2.85114
x1 = 0.05913	2.93159

CCC[N+](=O)[O-] [1-nitropropane] + ClC(Cl)(Cl)Cl
298.15 K, two-cell dielectric cell
Settings	relative permittivity at zero frequency
x1 = 0.002869	2.27091
x1 = 0.005861	2.3147
x1 = 0.01167	2.39918
x1 = 0.01742	2.48214
x1 = 0.0231	2.56405
x1 = 0.0253	2.59588
x1 = 0.02987	2.66163
x1 = 0.03553	2.74365
x1 = 0.04122	2.82491
x1 = 0.04993	2.95383
x1 = 0.05263	2.99295
x1 = 0.05816	3.07483
x1 = 0.06363	3.15625

C[N+](=O)[O-] [nitromethane] + c1ccccc1
two-terminal dielectric cell
Settings	relative permittivity at zero frequency
298.15 K, x1 = 0.000817	2.28834
298.15 K, x1 = 0.001228	2.294
298.15 K, x1 = 0.001638	2.29956
298.15 K, x1 = 0.002045	2.30518
298.15 K, x1 = 0.00245	2.31071
298.15 K, x1 = 0.003332	2.32281
298.15 K, x1 = 0.003559	2.32593
298.15 K, x1 = 0.004459	2.33824
298.15 K, x1 = 0.005656	2.35464
298.15 K, x1 = 0.006833	2.37085
298.15 K, x1 = 0.007322	2.37753
298.15 K, x1 = 0.007982	2.38639
298.15 K, x1 = 0.01242	2.44757
298.15 K, x1 = 0.01595	2.49623
298.15 K, x1 = 0.02031	2.55663
298.15 K, x1 = 0.02465	2.61628
298.15 K, x1 = 0.0332	2.7354
298.15 K, x1 = 0.04458	2.89495
298.15 K, x1 = 0.05494	3.03914
298.15 K, x1 = 0.06641	3.20367
298.15 K, x1 = 0.08012	3.40373
318.15 K, x1 = 0.000437	2.19342
318.15 K, x1 = 0.0008868	2.19856
318.15 K, x1 = 0.001333	2.20368
318.15 K, x1 = 0.001778	2.20876
318.15 K, x1 = 0.002219	2.21383
318.15 K, x1 = 0.002658	2.2188
318.15 K, x1 = 0.003857	2.23245
318.15 K, x1 = 0.004835	2.24352
318.15 K, x1 = 0.006131	2.25821
318.15 K, x1 = 0.007631	2.27516
318.15 K, x1 = 0.009325	2.29411
318.15 K, x1 = 0.01132	2.31664
318.15 K, x1 = 0.01305	2.33622
318.15 K, x1 = 0.0149	2.35704
318.15 K, x1 = 0.01628	2.37368
318.15 K, x1 = 0.02047	2.42114
318.15 K, x1 = 0.02519	2.47484
318.15 K, x1 = 0.03005	2.53001
318.15 K, x1 = 0.0345	2.58032
318.15 K, x1 = 0.04273	2.67386
318.15 K, x1 = 0.05416	2.80502
318.15 K, x1 = 0.06683	2.9527
318.15 K, x1 = 0.07816	3.08644
318.15 K, x1 = 0.09171	3.24999

CC(C)[N+](=O)[O-] [2-nitropropane] + Cc1ccc(C)cc1
298.15 K, two-terminal dielectric cell
Settings	relative permittivity at zero frequency
x1 = 0.005471	2.32313
x1 = 0.007307	2.34454
x1 = 0.01457	2.42922
x1 = 0.02174	2.51328
x1 = 0.02879	2.59677
x1 = 0.03194	2.63439
x1 = 0.03336	2.65058
x1 = 0.03555	2.67711
x1 = 0.04256	2.76165
x1 = 0.04948	2.84581
x1 = 0.05628	2.92956
x1 = 0.06235	3.00461

CC[N+](=O)[O-] [nitroethane] + ClC(Cl)(Cl)Cl
298.15 K, two-terminal dielectric cell
Settings	relative permittivity at zero frequency
x1 = 0.003529	2.27902
x1 = 0.00724	2.3313
x1 = 0.01443	2.4321
x1 = 0.02153	2.53048
x1 = 0.02851	2.62767
x1 = 0.0311	2.6639
x1 = 0.03397	2.7038
x1 = 0.04093	2.80121
x1 = 0.04779	2.89785
x1 = 0.05456	2.9938

CC(C)[N+](=O)[O-] [2-nitropropane] + CC(C)C(C)C
298.15 K, two-terminal dielectric cell
Settings	relative permittivity at zero frequency
x1 = 0.003786	1.92648
x1 = 0.007756	1.96704
x1 = 0.01545	2.04621
x1 = 0.02302	2.12477
x1 = 0.03047	2.20279
x1 = 0.03298	2.22897
x1 = 0.03446	2.24427
x1 = 0.03679	2.26913
x1 = 0.04419	2.34842
x1 = 0.0515	2.42769
x1 = 0.05867	2.50669
x1 = 0.06479	2.5748
x1 = 0.06604	2.58924
x1 = 0.06819	2.61329
x1 = 0.07183	2.65458
x1 = 0.07889	2.73569
x1 = 0.08584	2.81657
x1 = 0.09268	2.89729

CCC[N+](=O)[O-] [1-nitropropane] + C1CCCCC1
298.15 K, two-cell dielectric cell
Settings	relative permittivity at zero frequency
x1 = 0.003184	2.05488
x1 = 0.006527	2.09539
x1 = 0.01302	2.1734
x1 = 0.01942	2.24959
x1 = 0.02574	2.3244
x1 = 0.02693	2.33815
x1 = 0.02818	2.3525
x1 = 0.03015	2.37603
x1 = 0.03648	2.4508
x1 = 0.04272	2.52479
x1 = 0.04887	2.59808
x1 = 0.05327	2.64994
x1 = 0.05626	2.68544
x1 = 0.0594	2.72327
x1 = 0.06549	2.79734
x1 = 0.07152	2.87045
x1 = 0.07893	2.96124

CC[N+](=O)[O-] [nitroethane] + C1CCCCC1
298.15 K, two-terminal dielectric cell
Settings	relative permittivity at zero frequency
x1 = 0.003987	2.0631
x1 = 0.008153	2.11122
x1 = 0.01622	2.20858
x1 = 0.02416	2.2932
x1 = 0.03312	2.3893
x1 = 0.0371	2.43784
x1 = 0.04487	2.5254
x1 = 0.05252	2.6119
x1 = 0.06004	2.69759
x1 = 0.06369	2.73934

CC[N+](=O)[O-] [nitroethane] + Cc1ccc(C)cc1
298.15 K, two-terminal dielectric cell
Settings	relative permittivity at zero frequency
x1 = 0.001685	2.2782
x1 = 0.009202	2.35917
x1 = 0.01833	2.45822
x1 = 0.02729	2.55599
x1 = 0.03608	2.65295
x1 = 0.04032	2.69936
x1 = 0.05043	2.81296
x1 = 0.05899	2.91009
x1 = 0.0674	3.00647
x1 = 0.07566	3.10223

ClC(Cl)(Cl)Cl [tetrachloromethane] + C[N+](=O)[O-]
two-terminal dielectric cell
Settings	relative permittivity at zero frequency
298.15 K, x2 = 0.00098	2.24081
298.15 K, x2 = 0.001471	2.24714
298.15 K, x2 = 0.001979	2.25361
298.15 K, x2 = 0.002444	2.25959
298.15 K, x2 = 0.002927	2.26574
298.15 K, x2 = 0.003884	2.27791
298.15 K, x2 = 0.004245	2.28249
298.15 K, x2 = 0.00484	2.29002
298.15 K, x2 = 0.005797	2.30213
298.15 K, x2 = 0.006743	2.31404
298.15 K, x2 = 0.007679	2.32583
298.15 K, x2 = 0.008374	2.33457
298.15 K, x2 = 0.01041	2.35982
298.15 K, x2 = 0.01242	2.38483
298.15 K, x2 = 0.01439	2.40939
298.15 K, x2 = 0.01577	2.42642
298.15 K, x2 = 0.01737	2.44616
298.15 K, x2 = 0.01871	2.46233
298.15 K, x2 = 0.02204	2.50367
298.15 K, x2 = 0.02674	2.56122
298.15 K, x2 = 0.03418	2.65322
298.15 K, x2 = 0.04333	2.76524
298.15 K, x2 = 0.0523	2.87591
298.15 K, x2 = 0.0567	2.92988
318.15 K, x2 = 0.000162	2.23812
318.15 K, x2 = 0.000418	2.24125
318.15 K, x2 = 0.0008265	2.24641
318.15 K, x2 = 0.001238	2.25158
318.15 K, x2 = 0.001648	2.25667
318.15 K, x2 = 0.002055	2.26176
318.15 K, x2 = 0.00246	2.26679
318.15 K, x2 = 0.003263	2.2768
318.15 K, x2 = 0.003558	2.28051
318.15 K, x2 = 0.004468	2.29186
318.15 K, x2 = 0.005663	2.30678
318.15 K, x2 = 0.007033	2.3239
318.15 K, x2 = 0.007748	2.33263
318.15 K, x2 = 0.009707	2.35737
318.15 K, x2 = 0.0113	2.37756
318.15 K, x2 = 0.01572	2.4327
318.15 K, x2 = 0.02009	2.48822
318.15 K, x2 = 0.02486	2.54795
318.15 K, x2 = 0.02873	2.59732
318.15 K, x2 = 0.03299	2.65111
318.15 K, x2 = 0.0414	2.75865
318.15 K, x2 = 0.04472	2.80151
318.15 K, x2 = 0.054	2.91886
318.15 K, x2 = 0.06623	3.07885
318.15 K, x2 = 0.07426	3.18574
318.15 K, x2 = 0.08027	3.26614

CC(C)[N+](=O)[O-] [2-nitropropane] + ClC(Cl)(Cl)Cl
298.15 K, two-terminal dielectric cell
Settings	relative permittivity at zero frequency
x1 = 0.001006	2.24531
x1 = 0.002745	2.27181
x1 = 0.00569	2.31696
x1 = 0.01141	2.40482
x1 = 0.01707	2.49201
x1 = 0.02266	2.57869
x1 = 0.02488	2.61322
x1 = 0.02599	2.62967
x1 = 0.02803	2.6614
x1 = 0.03078	2.70432
x1 = 0.03634	2.79196
x1 = 0.04183	2.87937
x1 = 0.04726	2.9666
